Assay results reported in US9085555B2, “Complement pathway modulators and uses thereof” (priority 2011, dated 2015).

Target: Factor D (Homo sapiens (Human), UniProt P00746)
Test: biochemical
Assay type: biochemical
Conditions: read-out: IC50

Factor D, sequence (P00746 26-253): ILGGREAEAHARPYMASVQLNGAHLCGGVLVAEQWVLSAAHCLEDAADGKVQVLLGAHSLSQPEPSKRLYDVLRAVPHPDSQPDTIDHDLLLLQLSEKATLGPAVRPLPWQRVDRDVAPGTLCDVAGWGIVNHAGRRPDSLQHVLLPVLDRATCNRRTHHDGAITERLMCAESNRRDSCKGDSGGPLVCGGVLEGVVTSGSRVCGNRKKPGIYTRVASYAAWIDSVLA

With `CC(=O)c1nn(CC(=O)N2[C@@H]3C[C@@H]3C[C@H]2C(=O)Nc2cccc(OC(F)(F)F)c2F)c2ccc(OCC3CCCO3)cc12` (stereo partly drawn) [Example 772, (1R,3S,5R)-2-{2-[3-Acetyl-5-(tetrahydro-furan-2-ylmethoxy)-indazol-1-yl]-acetyl}-2-aza-bicyclo[3.1.0]hexane-3-carboxylic acid (2-fluoro-3-trifluoromethoxy-phenyl)-amide] the IC50 was 7 nM.
`CO[C@H]1[C@@H](C(=O)NCc2cccc(Cl)c2F)N(C(=O)Cn2nc(C(N)=O)c3ccncc32)C[C@@H]1F` [Example 662, 1-{2-[(2S,3S,4S)-2-(3-Chloro-2-fluoro-benzylcarbamoyl)-4-fluoro-3-methoxy-pyrrolidin-1-yl]-2-oxo-ethyl}-1H-pyrazolo[3,4-c]pyridine-3-carboxylic acid amide] was tested, and the IC50 was 13 nM.
`NC(=O)n1cc(NC(=O)N2C[C@@H](N)C[C@H]2C(=O)Nc2cccc(-c3ccccc3)c2)c2ccccc21` [Example 103, (2S,4S)-4-Amino-pyrrolidine-1,2-dicarboxylic acid 2-biphenyl-3-ylamide 1-[(1-carbamoyl-1H-indol-3-yl)-amide]] gave an IC50 of 550 nM.
`CC(=O)c1nn(CC(=O)N2[C@@H]3C[C@@H]3C[C@H]2C(=O)Nc2cccc(OC(F)(F)F)c2F)c2ccc(OCc3ncccn3)cc12` [Example 718, (1R,3S,5R)-2-{2-[3-Acetyl-5-(pyrimidin-2-ylmethoxy)-indazol-1-yl]-acetyl}-2-aza-bicyclo[3.1.0]hexane-3-carboxylic acid (2-fluoro-3-trifluoromethoxy-phenyl)-amide] gave an IC50 of 24 nM.
Work on `COC1CCN(Cc2cc(Cl)c(F)c(CNC(=O)[C@@H]3C[C@@H](F)CN3C(=O)Nc3cn(C(N)=O)c4ccccc34)c2)CC1` [Example 20, (2S,4R)-4-Fluoro-pyrrolidine-1,2-dicarboxylic acid 1-[(1-carbamoyl-1H-indol-3-yl)-amide] 2-(3-chloro-2-fluoro-5-(4-methoxy-piperidin-1-ylmethyl)-benzylamide]] yielded an IC50 of 1130 nM.
Molecule `NC(=O)c1nn(CC(=O)N2[C@@H]3C[C@@H]3C[C@H]2C(=O)Nc2cccc(Br)n2)c2cc(Cl)ccc12` [Example 749, 1-{2-[(1R,3S,5R)-3-(6-Bromo-pyridin-2-ylcarbamoyl)-2-aza-bicyclo[3.1.0]hex-2-yl]-2-oxo-ethyl}-6-chloro-1H-indazole-3-carboxylic acid amide] has an IC50 of 4 nM.
In the case of `COc1ccc(CNC(=O)[C@@H]2C[C@H](N)CN2C(=O)Nc2cn(C(N)=O)c3ccccc23)cc1Cl` [Example 54, (2S,4S)-4-Amino-pyrrolidine-1,2-dicarboxylic acid 1-[(1-carbamoyl-1H-indol-3-yl)-amide] 2-(3-chloro-4-methoxy-benzylamide)], the IC50 is reported as 1850 nM.
In the case of `NC(=O)n1cc(NC(=O)N2C[C@@](F)(CO)C[C@H]2C(=O)NCc2cccc(Cl)c2F)c2ccccc21` [Example 181, (2S,4R)-4-Fluoro-4-hydroxymethyl-pyrrolidine-1,2-dicarboxylic acid 1-[(1-carbamoyl-1H-indol-3-yl)-amide] 2-(3-chloro-2-fluoro-benzylamide)], the IC50 is reported as 20 nM.
With `NC(=O)n1cc(NC(=O)N2CC[C@H](F)[C@H]2C(=O)NCc2cccc(Cl)c2F)c2ccccc21` [Example 208, (2R,3S)-3-Fluoro-pyrrolidine-1,2-dicarboxylic acid 1-[(1-carbamoyl-1H-indol-3-yl)-amide] 2-(3-chloro-2-fluoro-benzylamide)] the IC50 was 29 nM.
Work on `COC[C@@H](NC(=O)[C@@H]1[C@H]2C[C@H]2CN1C(=O)Nc1cn(C(N)=O)c2ccccc12)c1cccc(Cl)c1F` [Example 245, (1S,2S,5R)-3-Aza-bicyclo[3.1.0]hexane-2,3-dicarboxylic acid 3-[(1-carbamoyl-1H-indol-3-yl)-amide] 2-{[(S)-1-(3-chloro-2-fluoro-phenyl)-2-methoxy-ethyl]-amide}] yielded an IC50 of 1050 nM.
`NC(=O)n1cc(NC(=O)N2C[C@@H](N)C[C@H]2C(=O)NCCc2ccccc2)c2ccccc21` [Example 81, (2S,4S)-4-Amino-pyrrolidine-1,2-dicarboxylic acid 1-[(1-carbamoyl-1H-indol-3-yl)-amide] 2-(phenethyl-amide)] was tested, and the IC50 was 4750 nM.
With `CC(=O)NC[C@@]1(F)C[C@@H](C(=O)NCc2cccc(Cl)c2F)N(C(=O)Nc2cn(C(N)=O)c3ccccc23)C1` [Example 221, (2S,4S)-4-(Acetylamino-methyl)-4-fluoro-pyrrolidine-1,2-dicarboxylic acid 1-[(1-carbamoyl-1H-indol-3-yl)-amide] 2-(3-chloro-2-fluoro-benzylamide)] the IC50 was 23 nM.
Molecule `NC(=O)n1cc(NC(=O)N2[C@@H]3C[C@@H]3C[C@H]2C(=O)NCc2cccc(Cl)c2F)c2cc(CCO)ccc21` [Example 385, 1R,3S,5R)-2-Aza-bicyclo[3.1.0]hexane-2,3-dicarboxylic acid 2-{[1-carbamoyl-5-(2-hydroxy-ethyl)-1H-indol-3-yl]-amide}3-(3-chloro-2-fluoro-benzylamide] has an IC50 of 7 nM.
Work on `CC(=O)c1cn(CC(=O)N2[C@@H]3C[C@@H]3C[C@H]2C(=O)NCc2cccc(Cl)c2F)c2ncncc12` [Example 649, (1R,3S,5R)-2-[2-(5-Acetyl-pyrrolo[2,3-d]pyrimidin-7-yl)-acetyl]-2-aza-bicyclo [3.1.0]hexane-3-carboxylic acid 3-chloro-2-fluoro-benzylamide] yielded an IC50 of 441 nM.
`CN(C)C[C@@]1(F)C[C@@H](C(=O)NCc2cccc(Cl)c2F)N(C(=O)Cc2cn(C(N)=O)c3ccccc23)C1` [Example 445, 3-{2-[(2S,4S)-2-(3-Chloro-2-fluoro-benzylcarbamoyl)-4-dimethylaminomethyl-4-fluoro-pyrrolidin-1-yl]-2-oxo-ethyl}-indole-1-carboxylic acid amide] showed an IC50 of 580 nM.
In the case of `COC(=O)C(NC(=O)[C@@H]1C[C@H](N)CN1C(=O)Nc1cn(C(N)=O)c2ccccc12)C(C)C` (stereo in doubt) [Example 94, (R)-2-{[(2S,4S)-4-Amino-1-(1-carbamoyl-1H-indol-3-ylcarbamoyl)-pyrrolidine-2-carbonyl]-amino}-3-methyl-butyric acid methyl ester], the IC50 is reported as 11000 nM.
`NC(=O)c1nn(CC(=O)N2[C@@H]3C[C@@H]3C[C@H]2C(=O)Nc2cccc(Cl)c2F)c2ccccc12` [Example 731, 1-{2-[(1R,3S,5R)-3-(3-Chloro-2-fluoro-phenylcarbamoyl)-2-aza-bicyclo[3.1.0]hex-2-yl]-2-oxo-ethyl}-1H-indazole-3-carboxylic acid amide] was tested, and the IC50 was 53 nM.
Molecule `NCc1ccc(-c2cccc(NC(=O)[C@@H]3CCCN3C(=O)Nc3cn(C(N)=O)c4ccccc34)c2)c(F)c1` [Example 401, (S)-Pyrrolidine-1,2-dicarboxylic acid 2-[(4′-aminomethyl-2′-fluoro-biphenyl-3-yl)-amide]1-[(1-carbamoyl-1H-indol-3-yl)-amide]] has an IC50 of 1050 nM.
Work on `NC(=O)c1cccc(NC(=O)[C@@H]2CCCN2C(=O)Nc2cn(C(N)=O)c3ccccc23)c1` [Example 324, (S)-Pyrrolidine-1,2-dicarboxylic acid 1-[(1-carbamoyl-1H-indol-3-yl)-amino] 2-[(3-carbamoyl-phenyl)-amide]] yielded an IC50 of 4250 nM.
Work on `NC(=O)n1cc(NC(=O)N2CCCC[C@H]2C(=O)NCc2cccc(Cl)c2F)c2ccccc21` [Example 220, (S)-Piperidine-1,2-dicarboxylic acid 1-[(1-carbamoyl-1H-indol-3-yl)-amide] 2-(3-chloro-2-fluoro-benzylamide)] yielded an IC50 of 233 nM.
Work on `Cc1ccc(Cl)cc1CNC(=O)[C@@H]1C[C@H](N)CN1C(=O)Nc1cn(C(N)=O)c2ccccc12` [Example 58, (2S,4S)-4-Amino-pyrrolidine-1,2-dicarboxylic acid 1-[(1-carbamoyl-1H-indol-3-yl)-amide] 2-(5-chloro-2-methyl-benzylamide)] yielded an IC50 of 350 nM.
`CCc1ccc2c(NC(=O)N3CCC[C@H]3C(=O)Nc3cccc(OC(F)(F)F)c3)cn(C(N)=O)c2c1` [Example 288, (S)-Pyrrolidine-1,2-dicarboxylic acid 1-[(1-carbamoyl-6-ethyl-1H-indol-3-yl)-amide] 2-[(3-trifluoromethoxy-phenyl)-amide]] showed an IC50 of 1100 nM.
